In brackets after ≈: the same amount, converted by molar mass. Where two headings read alike, the source gives them in different places. Square brackets hold non-standard residues; d marks the D form. Ends that are not written are not given here. Peptide text beside a SMILES is read from it. * marks the point of attachment. Trp(2-Pmc) = Cc1c(C)c(S(=O)(=O)c2[nH]c3ccccc3c2C[C@H](N)C(=O)O)c(C)c2c1OC(C)(C)CC2; Bip = N[C@@H](Cc1ccc(-c2ccccc2)cc1)C(=O)O; Fmoc = O=C(OCC1c2ccccc2-c2ccccc21)*; Acm = CC(=O)NC*
Experiments:
[1] = system: Escherichia coli ATCC 25922; type: cell-based
Method in brief: (§1)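 Bacteria in mid-log phase, grown in 2% Bacto Peptone water, were tested by standard microdilution in 1% Bacto Peptone water at an inoculum of 2×10^6 CFU/ml. Runs were in triplicate, and peptide concentration in the wells was checked by HPLC.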

[2] = system: Staphylococcus aureus ATCC 25923; type: cell-based
Method in brief: as §1

human red blood cells = assay: Hemolytic assay; type: cell-based; settings: red cells of human
Experimental: The hemolytic activities of the peptides were determined using fresh human red blood cells. 8 ml blood was taken from a healthy person. 4 ml blood was transferred to a polycarbonate tube containing heparin to a final concentration of 10 U/ml, and the remaining 4 ml blood was transferred to a glass tube containing EDTA with final concentration of 15% EDTA. The erythrocytes were isolated from heparin-treated blood by centrifugation in 1500 rpm for 10 min and washed three times with phosphate-buffered saline (PBS) to remove plasma and buffy coat. The cell pellet was resuspended in PBS to make the final volume of 4 ml. The peptide was diluted to a concentration of 2 mg/ml and 0.1 mg/ml. The peptide was further diluted to the concentrations as stated in Table 15. For each tube PBS was added first, then RBCs and peptide solutions. The hematocrit in the blood treated with EDTA was determined after 30 min with Sysmex K-1000, and the resuspended RBCs were diluted into 10% hematocrit. RBCs in PBS (1%) with and without peptides (Table 15) were incubated in a shaker at […] for 1 hour and then centrifuged at 4000 rpm for 5 min. The supernatant were carefully transferred to new polycarbonate tubes and the absorbance of the supernatant was measured at 540 nm. Baseline hemolysis was hemoglobin released in the presence of PBS, and 100% hemolysis was hemoglobin released in the presence of 0.1% Triton X-100.

[3] = system: Meth A cells (murine sarcoma cell line); assay: Cytotoxicity on Meth A cells, MTT method
Experimental: Peptide solutions (0.1 ml) were added and the plates incubated at 37° C. for 30 minutes, 4 hours or 24 hours. The cytotoxicity was measured using the MTT method (Mosmann et al., J. Immunol. (1986) 136, 2348-2357).
Cells in the growth phase were harvested and washed in fresh medium and injected subcutaneously into the abdominal region of the mice.
The cytotoxic effect of the peptides on different murine and human tumor cells were measured using the MTT method (Mosmann et al., J. Immunol. (1986) 136, 2348-2357). MTT is a soluble tetrazolium salt yielding a yellow solution when prepared in media or salt solutions lacking phenol red. Dissolved MTT is converted to an insoluble purple formazan by cleavage of the tetrazolium ring by dehydrogenase enzymes. This water insoluble formazan can be solubilized using isopropanol or other solvents and the dissolved material is measured spectrophotometrically. The absorbance was measured as a function of concentration of converted dye.
Cells were maintained in […] medium containing 10% FBS, 1% L-glutamine and 0.1% penicillin and streptomycin. Cells to be used in the assay were grown to confluency, trypsinated and split to single cell suspension, counted and centrifuged at 1500 rpm for 10 min. […][…] of cell suspension was transferred to each well on a 96-well microtiter plate. The cells were stimulated by adding […] of various concentrations of peptides diluted with assay medium to each well. The final concentrations of peptide were for example: 5, 10, 20, 40, 60, 80, 100, and 200 mg/ml. […] As a negative control only medium was added to the cells, and as a positive control (100% killing) 1% triton X-100 was added. Following an incubation period of 4 h., 20 ml MTT dissolved in PBS at a concentration of 5 mg/ml was added to each well, and the plate was incubated further for 2 h. 130 ml of the supernatant were then removed and […] acid alcohol (0.04-0.1 N HCl in isopropanol) added to each well to dissolve the dark blue crystals. The plate was placed on a shaker for 1 h and read spectrophotometrically at 590 nm in a microtiterplate reader using the Softmaxâ program.

[4] = read-out: MethA IC 50, Table 7, peptide required to kill 50% of MethA cells

| Molecule | MIC E. coli ([1]; ATCC 25922) | MIC S. aureus ([2]; ATCC 25923) | EC50 (human red blood cells) | MethA IC50 ([3]; 4 h) | also measured |
| --- | --- | --- | --- | --- | --- |
| PAWFKAFRWAWRMLKKAA-OH [LFB 14-31 A2,6, 10, 17F7K16L14] | 10 µg/mL | 10 µg/mL | > 440 µM |  | IC50 [3, 4]: 28.1 µM |
| CSCC[C@H](NC(=O)[C@H](CCCNC(=N)N)NC(=O)[C@H](Cc1c[nH]c2ccccc12)NC(=O)[C@H](CCC(N)=O)NC(=O)[C@H](Cc1c[nH]c2ccccc12)NC(=O)[C@H](CCCNC(=N)N)NC(=O)[C@H](CCCNC(=N)N)NC(=O)OCC1c2ccccc2-c2ccccc21)C(=O)N[C@@H](CCCCN)C(=O)N[C@@H](CCCCN)C(=O)N[C@@H](CC(C)C)C(=O)O [LFB 20-29 FMOC] (Fmoc-RRWQWRMKKL-OH) | 5 µg/mL (≈ 2.92 µM) | 10 µg/mL (≈ 5.85 µM) |  | 140 µg/mL | % Hemolysis 10 μg/ml (human red blood cells): 10.3%; % Hemolysis 100 μg/ml (human red blood cells): 28.2% |
| CSCC[C@H](NC(=O)[C@H](CCCNC(=N)N)NC(=O)[C@H](Cc1c[nH]c2ccccc12)NC(=O)[C@H](C)NC(=O)[C@H](Cc1c[nH]c2ccccc12)NC(=O)[C@H](CCCNC(=N)N)NC(=O)[C@H](CCCNC(=N)N)NC(=O)[C@H](C)NC(=O)[C@H](CCCCN)NC(=O)[C@H](Cc1ccc(-c2ccccc2)cc1)NC(=O)[C@H](Cc1c[nH]c2ccccc12)NC(=O)[C@H](C)NC(=O)[C@@H]1CCCN1)C(=O)N[C@@H](CCCCN)C(=O)N[C@@H](CCCCN)C(=O)N[C@@H](CC(C)C)C(=O)N[C@@H](C)C(=O)N[C@@H](C)C(=O)O [LFB1431A2, 6, 10, 17Bip4] (H-PAW[Bip]KARRWAWRMKKLAA-OH; N-terminus assumed) |  |  | 336 µM |  | EC50 ([3]; 4 h): 23.4 µM |
| CSCC[C@H](NC(=O)[C@H](CCCNC(=N)N)NC(=O)[C@H](C)NC(=O)[C@H](CCC(N)=O)NC(=O)[C@H](Cc1c(S(=O)(=O)c2c(C)c(C)c3c(c2C)CCC(C)(C)O3)[nH]c2ccccc12)NC(=O)[C@H](CCCNC(=N)N)NC(=O)[C@H](CCCNC(=N)N)NC(=O)[C@H](CSCNC(C)=O)NC(=O)[C@H](CCCCN)NC(=O)[C@@H](N)Cc1ccccc1)C(=O)N[C@@H](CCCCN)C(=O)N[C@@H](CCCCN)C(=O)N[C@@H](CC(C)C)C(=O)NCC(=O)N[C@@H](C)C(=O)O [LFB A8 PMC] (H-FKC(Acm)RR[Trp(2-Pmc)]QARMKKLGA-OH) | 15 µg/mL (≈ 6.77 µM) | 17.5 µg/mL (≈ 7.89 µM) |  | 275 µg/mL |  |
| Linear LFB (17-41) modified with Pmc: linear LFB (17-41) modified with Pmc |  |  |  |  | cytotoxic effect on Meth A cells compared with another peptide [3]: slightly more effective than Pmc modified LFB 17-31 |
| CSCC[C@H](NC(=O)[C@H](CCCNC(=N)N)NC(=O)[C@H](Cc1c[nH]c2ccccc12)NC(=O)[C@H](C)NC(=O)[C@H](Cc1c[nH]c2ccccc12)NC(=O)[C@H](CCCNC(=N)N)NC(=O)[C@H](CCCNC(=N)N)NC(=O)[C@H](CSCNC(C)=O)NC(=O)[C@H](CCCCN)NC(=O)[C@@H](N)Cc1ccccc1)C(=O)N[C@@H](CCCCN)C(=O)N[C@@H](CCCCN)C(=O)N[C@@H](CC(C)C)C(=O)NCC(=O)N[C@@H](C)C(=O)O [LFB A7] (H-FKC(Acm)RRWAWRMKKLGA-OH) | 30 µg/mL (≈ 14.9 µM) | 150 µg/mL (≈ 74.7 µM) |  | 500 µg/mL |  |
| CSCC[C@H](NC(=O)[C@H](CCCNC(=N)N)NC(=O)[C@H](Cc1c[nH]c2ccccc12)NC(=O)[C@H](CCC(N)=O)NC(=O)[C@H](Cc1c[nH]c2ccccc12)NC(=O)[C@H](CCCNC(=N)N)NC(=O)[C@H](CCCNC(=N)N)NC(=O)[C@H](CSCNC(C)=O)NC(=O)[C@H](CCCCN)NC(=O)[C@@H](N)Cc1ccccc1)C(=O)N[C@@H](CCCCN)C(=O)N[C@@H](CCCCN)C(=O)N[C@@H](CC(C)C)C(=O)N[C@@H](C)C(=O)N[C@@H](C)C(=O)O [LFB A14] (H-FKC(Acm)RRWQWRMKKLAA-OH) | 25 µg/mL (≈ 12 µM) | 160 µg/mL (≈ 76.9 µM) |  | 500 µg/mL |  |
| CSCC[C@H](NC(=O)[C@H](CCCNC(=N)N)NC(=O)[C@H](Cc1c[nH]c2ccccc12)NC(=O)[C@H](C)NC(=O)[C@H](Cc1c[nH]c2ccccc12)NC(=O)[C@H](CCCNC(=N)N)NC(=O)[C@H](CCCNC(=N)N)NC(=O)OCC1c2ccccc2-c2ccccc21)C(=O)N[C@@H](CCCCN)C(=O)N[C@@H](CCCCN)C(=O)O [LFB 20-28 A4 FMOC] (Fmoc-RRWAWRMKK-OH) |  |  |  | 120 µg/mL |  |
| PAWFKARRWAWRMKKLA-OH [LFB 14-30 A2,6, 10, 17] |  |  | > 454 µM |  | IC50 ([3]; 4 h): > 227 µM |
| PAWFKARRWAWRMKKL-OH [LFB 14-29 A2,6, 10] |  |  | > 469 µM |  | IC50 ([3]; 4 h): > 235 µM |
| PAWRKARRWARRMKKLAA-OH [LFB 14-31 A2,6, 10, 17R4, 11] |  |  | > 444 µM |  | IC50 [3, 4]: 75.5 µM |
| PAWFKARRWAWRMKK-OH [LFB 14-28 A2,6, 10] |  |  | > 438 µM |  | IC50 ([3]; 4 h): > 248 µM |
| CSCC[C@H](NC(=O)[C@H](CCCNC(=N)N)NC(=O)[C@H](C)NC(=O)[C@H](CCC(N)=O)NC(=O)[C@H](Cc1c(S(=O)(=O)c2c(C)c(C)c3c(c2C)CCC(C)(C)O3)[nH]c2ccccc12)NC(=O)[C@H](CCCNC(=N)N)NC(=O)[C@H](CCCNC(=N)N)NC(=O)[C@H](CSCNC(C)=O)NC(=O)[C@H](CCCCN)NC(=O)[C@H](Cc1ccccc1)NC(=O)OCC1c2ccccc2-c2ccccc21)C(=O)N[C@@H](CCCCN)C(=O)N[C@@H](CCCCN)C(=O)N[C@@H](CC(C)C)C(=O)NCC(=O)N[C@@H](C)C(=O)O [LFB A8 FMOC PMC] (Fmoc-FKC(Acm)RR[Trp(2-Pmc)]QARMKKLGA-OH) |  |  |  |  | % Hemolysis 10 μg/ml (human red blood cells): 6.75%; % Hemolysis 100 μg/ml (human red blood cells): 45.4%; concentration killing Meth A tumor cells ([3]; after 4 hours incubation): 50 µg/mL; concentration killing Meth A tumor cells ([3]; after ½ hour incubation): higher than 100 μg/ml |
| H-FKARRWQWRMKKLGA-OH [LFB A3] | 25 µg/mL | 100 µg/mL |  | 500 µg/mL |  |
| CSCC[C@H](NC(=O)[C@H](CCCNC(=N)N)NC(=O)[C@H](Cc1c[nH]c2ccccc12)NC(=O)[C@H](CCC(N)=O)NC(=O)[C@H](Cc1c[nH]c2ccccc12)NC(=O)[C@H](CCCNC(=N)N)NC(=O)[C@H](CCCNC(=N)N)NC(=O)[C@H](Cc1c[nH]c2ccccc12)NC(=O)[C@H](CCCCN)NC(=O)[C@@H](N)Cc1ccccc1)C(=O)N[C@@H](CCCCN)C(=O)N[C@@H](CCCCN)C(=O)N[C@@H](CC(C)C)C(=O)NCC(=O)N[C@@H](C)C(=O)O [LFB W3, H2N-Phe-Lys-Trp-Arg-Arg-Trp-Gln-Trp-Arg-Met-Lys-Lys-Leu-Gly-Ala-COOH] | 20 µg/mL (≈ 9.63 µM) | 20 µg/mL (≈ 9.63 µM) |  |  | MIC E. coli ([1]; Table 6): 20 µg/mL (≈ 9.63 µM); MIC S. aureus ([2]; Table 6, unit assumed): 20 µg/mL (≈ 9.63 µM); % Hemolysis 10 μg/ml (human red blood cells): 2.3%; % Hemolysis 100 μg/ml (human red blood cells): 3.8% |
| CSCC[C@@H](NC(=O)[C@@H](CCCNC(=N)N)NC(=O)[C@@H](Cc1c[nH]c2ccccc12)NC(=O)[C@@H](CCC(N)=O)NC(=O)[C@@H](Cc1c[nH]c2ccccc12)NC(=O)[C@@H](CCCNC(=N)N)NC(=O)[C@@H](CCCNC(=N)N)NC(=O)[C@@H](CSCNC(C)=O)NC(=O)[C@@H](CCCCN)NC(=O)[C@H](N)Cc1ccccc1)C(=O)N[C@H](CCCCN)C(=O)N[C@H](CCCCN)C(=O)N[C@H](CC(C)C)C(=O)NCC(=O)N[C@H](C)C(=O)O [Enantio LFB 17-31] |  |  |  |  | MIC E. coli ([1]; Table 3): 7.5 µg/mL (≈ 3.63 µM); MIC S. aureus ([2]; Table 3, unit assumed): 60 µg/mL (≈ 29 µM); % Hemolysis 10 μg/ml (human red blood cells): 3.05% |

From patent publication US20030022821A1, “Bioactive peptides” (priority 1998, published 2003)
